Test results: ChEMBL document CHEMBL4665709, “Rational Avoidance of Protease Cleavage Sites and Symmetrical End-Tagging Significantly Enhances the Stability and Therapeutic Potential of Antimicrobial Peptides” (J Med Chem, 2020)
Values after ≈ are worked out from the molar mass of the structure shown. Active and inactive are the calls of the source. No cut-off for these calls is given here.

Columns and labels:
Erythrocyte = assay: Hemolytic activity in human RBC assessed as hemolysis; assay type: ADME, cell-based
[1] = Therapeutic index, ratio of MHC for human RBC to geometric mean of peptide MIC for Salmonella typhimurium 14028; assay type: toxicity; details: human red blood cells (RBC), read-out: TI
Escherichia coli [2] = assay: Antibacterial activity against Escherichia coli ATCC 25922 measured after 18 to 24 hrs in presence of trypsin by CLSI-based broth microdilution method; assay type: functional, organism-based; details: time hrs 18-24
[3] = Therapeutic index, ratio of MHC for human RBC to geometric mean of peptide MIC for Staphylococcus epidermidis ATCC 12228; assay type: toxicity; details: human red blood cells (RBC), read-out: TI
[4] = Therapeutic index, ratio of MHC for human RBC to geometric mean of peptide MIC for methicillin-resistant Staphylococcus aureus 43300; assay type: toxicity; details: human red blood cells (RBC), read-out: TI
Escherichia coli [5] = assay: Antibacterial activity against Escherichia coli ATCC 25922 measured after 18 to 24 hrs in presence of proteinase K by CLSI-based broth microdilution method; assay type: functional, organism-based; details: time hrs 18-24
Escherichia coli [6] = assay: Antibacterial activity against Escherichia coli ATCC 25922 measured after 18 to 24 hrs in presence of chymotrypsin by CLSI-based broth microdilution method; assay type: functional, organism-based; details: time hrs 18-24
Escherichia coli [7] = assay: Antibacterial activity against Escherichia coli ATCC 25922 measured after 18 to 24 hrs in presence of pepsin by CLSI-based broth microdilution method; assay type: functional, organism-based; details: time hrs 18-24
[8] = Therapeutic index, ratio of MHC for human RBC to geometric mean of peptide MIC for Enterococcus faecalis ATCC 29212; assay type: toxicity; details: human red blood cells (RBC), read-out: TI
Staphylococcus aureus [9] = assay: Antibacterial activity against Staphylococcus aureus 29213 with 0.0625-2 mg/mL chymotrypsin for 1 hr followed by test compound addition measured after 4 to 8 hrs by CLSI-based broth microdilution method; assay type: functional, organism-based; details: time hrs 4-8
[10] = Stability of compound assessed as pepsin (unknown origin)-mediated drug degradation after 1 hr by RP-HPLC analysis; assay type: ADME; details: human
Cell membrane = assay: Induction of outer membrane permeabilization in Escherichia coli ATCC 25922 after 30 mins by NPN-dye based assay
Streptococcus agalactiae = assay: Antibacterial activity against Streptococcus agalactiae H92 after 18 to 24 hrs by CLSI-based broth microdilution method; assay type: functional; details: time hrs 18-24
RAW264.7 = assay: Cytotoxicity against mouse RAW264.7 cells assessed as reduction in cell viability lower concentration by MTT assay; assay type: cell-based
[11] = Stability of compound assessed as chymotrypsin (unknown origin)-mediated drug degradation after 1 hr by RP-HPLC analysis; assay type: ADME; details: human
Trypsin [12] = biological target: T1, Trypsin (Homo sapiens, UniProt P07477+P07478+P35030); assay: Stability of compound assessed as trypsin (unknown origin)-mediated drug degradation after 1 hr by RP-HPLC analysis; assay type: ADME, protein assay
Trypsin [13] = biological target: T1, Trypsin; assay: Stability of compound assessed as trypsin (unknown origin)-mediated drug degradation after 1 hr by SDS-PAGE analysis; assay type: ADME, protein assay
Enterococcus faecalis = assay: Antibacterial activity against Enterococcus faecalis ATCC 29212 after 18 to 24 hrs by CLSI-based broth microdilution method; assay type: functional; details: time hrs 18-24
[14] = Stability of compound assessed as proteinase K (unknown origin)-mediated drug degradation after 1 hr by SDS-PAGE analysis; assay type: ADME; details: human
[15] = Therapeutic index, ratio of MHC for human RBC to geometric mean of peptide MIC for Salmonella typhimurium 7731; assay type: toxicity; details: human red blood cells (RBC), read-out: TI
Staphylococcus aureus [16] = assay: Antibacterial activity against Staphylococcus aureus 29213 with 0.0625-2 mg/mL trypsin for 1 hr followed by test compound addition measured after 4 to 8 hrs by CLSI-based broth microdilution method; assay type: functional, organism-based; details: time hrs 4-8
[17] = Therapeutic index, ratio of MHC for human RBC to geometric mean of peptide MIC for Escherichia coli UB1005; assay type: toxicity; details: human red blood cells (RBC), read-out: TI
[18] = Hemolytic activity in human RBC assessed as hemolysis at 1 to 128 uM relative to control; assay type: ADME, cell-based, Erythrocyte; details: human red blood cells (RBC), dose 1-128 µM, read-out: Activity
[19] = Stability of compound assessed as proteinase K (unknown origin)-mediated drug degradation after 1 hr by RP-HPLC analysis; assay type: ADME; details: human
[20] = Therapeutic index, ratio of MHC for human RBC to geometric mean of peptide MIC for Streptococcus agalactiae H92; assay type: toxicity; details: human red blood cells (RBC), read-out: TI
[21] = Antibacterial activity against Salmonella pullorum 7913 after 18 to 24 hrs by CLSI-based broth microdilution method; assay type: functional, Salmonella enterica subsp. enterica serovar Pullorum; details: Salmonella enterica, time hrs 18-24
[22] = Therapeutic index, ratio of MHC for human RBC to geometric mean of peptide MIC for Salmonella choleraesuis 503; assay type: toxicity; details: human red blood cells (RBC), read-out: TI
HEK-293T = assay: Cytotoxicity against HEK-293T cells assessed as reduction in cell viability at lower concentration by MTT assay; assay type: cell-based; details: human
[23] = Stability of compound assessed as pepsin (unknown origin)-mediated drug degradation after 1 hr by SDS-PAGE analysis; assay type: ADME; details: human
[24] = Therapeutic index, ratio of MHC for human RBC to geometric mean of peptide MIC for Staphylococcus aureus 11011; assay type: toxicity; details: human red blood cells (RBC), read-out: TI
[25] = Therapeutic index, ratio of MHC for human RBC to geometric mean of peptide MIC for Salmonella pullorum 7913; assay type: toxicity; details: human red blood cells (RBC), read-out: TI
[26] = Stability of compound at 100 degreeC after 30 to 90 mins; assay type: physicochemical; details: time 30-90 min
Staphylococcus aureus [27] = assay: Antibacterial activity against Staphylococcus aureus 29213 with 0.0625-2 mg/mL pepsin for 1 hr followed by test compound addition measured after 4 to 8 hrs by CLSI-based broth microdilution method; assay type: functional, organism-based; details: time hrs 4-8
Staphylococcus aureus [28] = assay: Antibacterial activity against Staphylococcus aureus 29213 with 0.0625-2 mg/mL proteinase K for 1 hr followed by test compound addition measured after 4 to 8 hrs by CLSI-based broth microdilution method; assay type: functional, organism-based; details: time hrs 4-8
[29] = Hemolytic activity in human RBC assessed as hemolysis at 1 uM relative to control; assay type: ADME, cell-based, Erythrocyte; details: human red blood cells (RBC), read-out: Activity
[30] = Stability of compound assessed as chymotrypsin (unknown origin)-mediated drug degradation after 1 hr by SDS-PAGE analysis; assay type: ADME; details: human
[31] = Therapeutic index, ratio of MHC for human RBC to geometric mean of peptide MIC for Escherichia coli ATCC 25922; assay type: toxicity; details: human red blood cells (RBC), read-out: TI
[32] = Therapeutic index, ratio of MHC for human RBC to geometric mean of peptide MIC for Staphylococcus aureus ATCC 29213; assay type: toxicity; details: human red blood cells (RBC), read-out: TI
Salmonella enterica = assay: Antibacterial activity against Salmonella choleraesuis 503 after 18 to 24 hrs by CLSI-based broth microdilution method; assay type: functional; details: time hrs 18-24

For `CC[C@H](C)[C@H](NC(=O)CN)C(=O)NCC(=O)N[C@@H](C)C(=O)N[C@H](C(=O)N[C@@H](CC(C)C)C(=O)N[C@@H](CCCCN)C(=O)N[C@H](C(=O)N[C@@H](CC(C)C)C(=O)N[C@H](C(=O)N[C@H](C(=O)NCC(=O)N[C@@H](CC(C)C)C(=O)N1CCC[C@H]1C(=O)N[C@@H](C)C(=O)N[C@@H](CC(C)C)C(=O)N[C@H](C(=O)N[C@@H](CO)C(=O)N[C@@H](Cc1c[nH]c2ccccc12)C(=O)N[C@H](C(=O)N[C@@H](CCCCN)C(=O)N[C@@H](CCCNC(=N)N)C(=O)N[C@@H](CCCCN)C(=O)N[C@@H](CCCNC(=N)N)C(=O)N[C@@H](CCC(N)=O)C(=O)N[C@@H](CCC(N)=O)C(N)=O)[C@@H](C)CC)[C@@H](C)CC)[C@@H](C)O)[C@@H](C)O)C(C)C)C(C)C` [MELITTIN], the MHC (Erythrocyte) was 1 µM, the selectivity ratio [1] was 0.4 and the Activity (Escherichia coli [2]) was “inactive”. For the same molecule, the selectivity ratio [3] was 0.56, the selectivity ratio [4] was 0.56 and the Activity (Escherichia coli [5]) was “inactive”. For the same molecule, the Activity (Escherichia coli [6]) was “inactive”, the Activity (Escherichia coli [7]) was “inactive” and the selectivity ratio [8] was 0.56. For the same molecule, the Activity (Staphylococcus aureus [9]) was “inactive”, the Stabilty [10] was “Unstable” and the Activity (Cell membrane) was “Dose-dependent effect”. For the same molecule, the MIC (Streptococcus agalactiae) was 1 µM (≈ 2.85 µg/mL), the Activity (RAW264.7) was “Toxic” and the Stabilty [11] was “Unstable”. For the same molecule, the Stabilty (Trypsin [12]) was “Unstable”, the Stabilty (Trypsin [13]) was “Unstable” and the MIC (Enterococcus faecalis) was 2 µM (≈ 5.69 µg/mL). The Stabilty [14] was “Unstable”, the selectivity ratio [15] was 0.4 and the Activity (Staphylococcus aureus [16]) was “inactive”. The selectivity ratio [17] was 0.4, the hemolysis at up to 128 µM [18] was < 5% and the Stabilty [19] was “Unstable”. The selectivity ratio [20] was 0.56, the MIC [21] was 4 µM (≈ 11.4 µg/mL) and the selectivity ratio [22] was 0.4. For the same molecule, the Activity (HEK-293T) was “Toxic”, the Stabilty [23] was “Unstable” and the selectivity ratio [24] was 0.56. The selectivity ratio [25] was 0.4, the Stabilty [26] was “Stable” and the Activity (Staphylococcus aureus [27]) was “inactive”. For the same molecule, the Activity (Staphylococcus aureus [28]) was “inactive”, the hemolysis at 1 µM [29] was 10.1% and the Stabilty [30] was “Unstable”. The selectivity ratio [31] was 0.4, the selectivity ratio [32] was 0.56 and the MIC (Salmonella enterica) was 4 µM (≈ 11.4 µg/mL).
